Data taken from US9023852B2, “1, 2, 4-thiadiazol-5-ylpiperazine derivatives useful in the treatment of neurodegenerative diseases” (Remynd NV, priority 2011, dated 2015).
pEC50: −log10 of the molar value.

System: M17—3TAU(P301L) cells
Test: Neuroblastoma tauopathy model: inhibition of TAU-induced cytotoxicity (LDH)
Format: cell-based
Details: Homo sapiens, 168 h; inhibition of TAU-induced toxicity (LDH), 7 days differentiation with retinoic acid
How it was run: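 BE-M17 neuroblastoma cells stably expressing human TAU-P301L, differentiated with RA (2.5 μM in added medium) for 7 days at 37 °C with compounds at a range of concentrations. Cytotoxicity as supernatant LDH over total LDH (Cytotox 96); EC50 from dose-dependent inhibition curve.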

Row | Compound | pEC50
1 | Fc1ccc(-c2nsc(N3CCN(CCc4ccccc4)CC3)n2)cc1F [Example 101, 1-[3-(3,4-Difluoro-phenyl)-[1,2,4]thiadiazol-5-yl]-4-phenethyl-piperazine] | 8.49
2 | COc1ccc(CCN2CCN(c3nc(-c4cccc(OC)c4)ns3)CC2)cc1 [Example 18, 1-[2-(4-Methoxy-phenyl)-ethyl]-4-[3-(3-methoxy-phenyl)[1,2,4]thiadiazol-5-yl]-piperazine] | 6.44
3 | COc1cccc(CCN2CCN(c3nc(-c4cccc(Cl)c4)ns3)CC2)c1 [Example 48, 1-[3-(3-Chloro-phenyl)-[1,2,4]thiadiazol-5-yl]-4-[2-(3-methoxy-phenyl)-ethyl]-piperazine] | 9.22
4 | C=C(CN1CCN(c2nc(-c3ccc(Cl)cc3)ns2)CC1)c1ccc(OC)cc1 [Example 59, 1-[3-(4-Chloro-phenyl)-[1,2,4]thiadiazol-5-yl]-4-[2-(4-methoxy-phenyl)-allyl]-piperazine] | 7.12
5 | Clc1ccc(CCN2CCN(c3nc(-c4ccc(Cl)cn4)ns3)CC2)cc1 [Example 124, 1-[2-(4-Chloro-phenyl)-ethyl]-4-[3-(5-chloro-pyridin-2-yl)-[1,2,4]thiadiazol-5-yl]-piperazine] | 6.34
6 | COc1cccc(CCN2CCN(c3nc(-c4cnccn4)ns3)CC2)c1 [Example 77, 2-(5-{4-[2-(3-Methoxy-phenyl)-ethyl]-piperazin-1-yl}-[1,2,4]thiadiazol-3-yl)-pyrazine] | 6.58
7 | Cc1ccc(-c2nsc(N3CCN(Cc4ccc(Cl)cc4Cl)CC3)n2)cc1 [Example 3, 1-(2,4-Dichloro-benzyl)-4-(3-p-tolyl-[1,2,4]thiadiazol-5-yl)-piperazine] | 6.01
8 | N#Cc1ccc(-c2nsc(N3CCN(CCc4ccc(F)c(F)c4)CC3)n2)cc1 [Example 138, 4-(5-{4-[2-(3,4-Difluoro-phenyl)-ethyl]piperazin-1-yl}-[1,2,4]thiadiazol-3-yl)-benzonitrile] | 7.74
9 | COc1ccc(CCN2CCN(c3nc(-c4ccncc4)ns3)CC2)cc1 [Example 43, 1-[2-(4-Methoxy-phenyl)-ethyl]-4-(3-pyridin-4-yl-[1,2,4]thiadiazol-5-yl)-piperazine] | 8.48
10 | Clc1ccnc(-c2nsc(N3CCN(CCc4ccccc4)CC3)n2)c1 [Example 120, 1-[3-(4-Chloro-pyridin-2-yl)-[1,2,4]thiadiazol-5-yl]-4-phenethyl-piperazine] | 7.79
11 | Fc1ccc(-c2nsc(N3CCN(CCc4ccc(Cl)cc4)CC3)n2)cc1F [Example 104, 1-[2-(4-Chloro-phenyl)-ethyl]-4-[3-(3,4-difluoro-phenyl)-[1,2,4]thiadiazol-5-yl]-piperazine] | 7.95
12 | O=C(CN1CCN(c2nc(-c3ccc(Cl)cc3)ns2)CC1)c1cccc(F)c1 [Example 62, 2-{4-[3-(4-Chloro-phenyl)-[1,2,4]thiadiazol-5-yl]-piperazin-1-yl}-1-(3-fluoro-phenyl)-ethanone] | 7.16
13 | COc1ccc(CCN2CCN(c3nc(-c4ccc(Cl)cn4)ns3)CC2)cc1 [Example 126, 1-[3-(5-Chloro-pyridin-2-yl)-[1,2,4]thiadiazol-5-yl]-4-[2-(4-methoxy-phenyl)-ethyl]-piperazine] | 8.15
14 | Clc1ccc(-c2nsc(N3CCN(CCC4CCCCC4)CC3)n2)cc1 [Example 161, 3-(4-chlorophenyl)-5-(4-(2-cyclohexylethyl)piperazin-1-yl)-1,2,4-thiadiazole] | 7.40
15 | Clc1ccc(-c2nsc(N3CCN(CCc4ccccc4Cl)CC3)n2)cc1 [Example 29, 1-[2-(2-Chloro-phenyl)-ethyl]-4-[3-(4-chloro-phenyl)-[1,2,4]thiadiazol-5-yl]-piperazine] | 8.89
16 | COc1ccc(CCN2CCN(c3nc(-c4ccc(C#N)cc4)ns3)CC2)cn1 [Example 114, 4-(5-{4-[2-(6-Methoxy-pyridin-3-yl)-ethyl]-piperazin-1-yl}-[1,2,4]thiadiazol-3-yl)-benzonitrile] | 8.10
17 | COc1cc(CCN2CCN(c3nc(-c4ccc(C)nc4)ns3)CC2)ccn1 [Example 97, 1-[2-(2-Methoxy-pyridin-4-yl)-ethyl]-4-[3-(6-methyl-pyridin-3-yl)-[1,2,4]thiadiazol-5-yl]-piperazine] | 7.29
18 | FC(F)(F)c1cccc(CCN2CCN(c3nc(-c4cc(Cl)ccn4)ns3)CC2)c1 [Example 159, 3-(4-chloropyridin-2-yl)-5-(4-(3-(trifluoromethyl)phenethyl)piperazin-1-yl)-1,2,4-thiadiazole] | 6.92
19 | N#Cc1ccc(-c2nsc(N3CCN(CCc4ccccc4)CC3)n2)cc1 [Example 108, 4-[5-(4-Phenethyl-piperazin-1-yl)-[1,2,4]thiadiazol-3-yl]-benzonitrile] | 8.10
20 | Fc1ccc(CCN2CCN(c3nc(-c4cncc(Cl)c4)ns3)CC2)cc1F [Example 160, 3-(5-chloropyridin-3-yl)-5-(4-(3,4-difluorophenethyl)piperazin-1-yl)-1,2,4-thiadiazole] | 9.40

Row | Compound | pEC50
21 | COc1ccc(CCN2CCN(c3nc(-c4ccc(OC)cc4)ns3)CC2)cc1 [Example 40, 1-[2-(4-Methoxy-phenyl)-ethyl]-4-[3-(4-methoxy-phenyl)-[1,2,4]thiadiazol-5-yl]-piperazine] | 7.85
22 | COc1ccc(CCN2CCN(c3nc(-c4cncc(Cl)c4)ns3)CC2)cc1 [Example 91, 1-[3-(5-Chloro-pyridin-3-yl)-[1,2,4]thiadiazol-5-yl]-4-[2-(4-methoxy-phenyl)-ethyl]-piperazine] | 9.05
23 | Cc1ccccc1CN1CCN(c2nc(-c3cccc(Cl)c3)ns2)CC1 [Example 92, 1-[3-(3-Chloro-phenyl)-[1,2,4]thiadiazol-5-yl]-4-(2-methyl-benzyl)-piperazine] | 7.36
24 | FC(F)Oc1ccc(CCN2CCN(c3nc(-c4ccc(Cl)cc4)ns3)CC2)cc1 [Example 70, 1-[3-(4-Chloro-phenyl)-[1,2,4]thiadiazol-5-yl]-4-[2-(4-difluoromethoxy-phenyl)-ethyl]-piperazine] | 6.71
25 | FC(F)(F)c1ccc(CCN2CCN(c3nc(-c4cncc(Cl)c4)ns3)CC2)cc1 [Example 152, 1-[3-(5-Chloro-pyridin-3-yl)-[1,2,4]thiadiazol-5-yl]-4-[2-(4-trifluoromethyl-phenyl)-ethyl]-piperazine] | 6.67
26 | COc1cccc(CCN2CCN(c3nc(-c4ccc(Cl)cc4F)ns3)CC2)c1 [Example 55, 1-[3-(4-Chloro-2-fluoro-phenyl)-[1,2,4]thiadiazol-5-yl]-4-[2-(3-methoxy-phenyl)-ethyl]-piperazine] | 8.38
27 | COc1cccc(CCN2CCN(c3nc(-c4ccc(C)cc4)ns3)CC2)c1 [Example 16, 1-[2-(3-Methoxy-phenyl)-ethyl]-4-(3-p-tolyl-[1,2,4]thiadiazol-5-yl)-piperazine] | 7.19
28 | COc1cc(CCN2CCN(c3nc(-c4ccc(F)c(F)c4)ns3)CC2)ccn1 [Example 106, 1-[3-(3,4-Difluoro-phenyl)-[1,2,4]thiadiazol-5-yl]-4-[2-(2-methoxy-pyridin-4-yl)-ethyl]-piperazine] | 8.52
29 | COc1ccc(CCN2CCN(c3nc(-c4cnnc(C)c4)ns3)CC2)cc1 [Example 177, 5-(4-(4-methoxyphenethyl)piperazin-1-yl)-3-(6-methylpyridazin-4-yl)-1,2,4-thiadiazole] | 9.00
30 | Fc1ccc(CCN2CCN(c3nc(-c4ccc(F)c(F)c4)ns3)CC2)cc1 [Example 103, 1-[3-(3,4-Difluoro-phenyl)-[1,2,4]thiadiazol-5-yl]-4-[2-(4-fluoro-phenyl)-ethyl]-piperazine] | 8.47
31 | FC(F)(F)c1ccc(CCN2CCN(c3nc(-c4ccc(Cl)cc4)ns3)CC2)cc1 [Example 144, 1-[3-(4-Chloro-phenyl)-[1,2,4]thiadiazol-5-yl]-4-[2-(4-trifluoromethyl-phenyl)-ethyl]-piperazine] | 6.22
32 | COc1ccc(C(O)CN2CCN(c3nc(-c4ccc(Cl)cc4)ns3)CC2)cc1 (stereo not shown) [Example 54, 2-{4-[3-(4-Chloro-phenyl)-[1,2,4]thiadiazol-5-yl]-piperazin-1-yl}-1-(4-methoxy-phenyl)-ethanol] | 7.79
33 | Fc1cccc(CCN2CCN(c3nc(-c4ccc(Cl)cc4)ns3)CC2)c1 [Example 21, 1-[3-(4-Chloro-phenyl)-[1,2,4]thiadiazol-5-yl]-4-[2-(3-fluoro-phenyl)-ethyl]-piperazine] | 8.02
34 | Cc1ccc(-c2nsc(N3CCN(CCCc4ccccc4)CC3)n2)cc1 [Example 155, 5-(4-(3-phenylpropyl)piperazin-1-yl)-3-(p-tolyl)-1,2,4-thiadiazole] | 6.01
35 | COc1ccc(CCN2CCN(c3nc(-c4cnc(C)nc4)ns3)CC2)cc1 [Example 179, 5-(4-(4-methoxyphenethyl)piperazin-1-yl)-3-(2-methylpyrimidin-5-yl)-1,2,4-thiadiazole] | 8.47
36 | Fc1ccc(CCN2CCN(c3nc(-c4ccc(Cl)cn4)ns3)CC2)cc1F [Example 139, 1-[3-(5-Chloro-pyridin-2-yl)-[1,2,4]thiadiazol-5-yl]-4-[2-(3,4-difluoro-phenyl)-ethyl]-piperazine] | 7.33
37 | COc1ccc(CCN2CCN(c3nc(-c4cccs4)ns3)CC2)cc1 [Example 44, 1-[2-(4-Methoxy-phenyl)-ethyl]-4-(3-thiophen-2-yl-[1,2,4]thiadiazol-5-yl)-piperazine] | 8.64
38 | Clc1cccc(-c2nsc(N3CCN(CCc4ccccc4)CC3)n2)c1 [Example 82, 1-[3-(3-Chloro-phenyl)-[1,2,4]thiadiazol-5-yl]-4-phenethyl-piperazine] | 8.40
39 | Fc1ccc(CCN2CCN(c3nc(-c4ccc(F)c(F)c4)ns3)CC2)cc1F [Example 136, 1-[2-(3,4-Difluoro-phenyl)-ethyl]-4-[3-(3,4-difluoro-phenyl)-[1,2,4]thiadiazol-5-yl]-piperazine] | 8.21
40 | COc1ccc(CCN2CCN(c3nc(-c4ccc(C)nc4)ns3)CC2)cc1 [Example 95, 1-[2-(4-Methoxy-phenyl)-ethyl]-4-[3-(6-methyl-pyridin-3-yl)-[1,2,4]thiadiazol-5-yl]-piperazine] | 8.51
